Key:
[1] = system: ISC-enriched organoids; test: Primary screen, 384-well 2.5-D organoid differentiation (ENR+CD, 6 days, Target Selective Inhibitor Library, vs whole-plate median): ATP (CellTiter-Glo 3D, CTG); details: primary screen; for Dose.FC.CTG: FC vs plate median; for SSMD.CTG: strictly standardized mean difference
[2] = system: ISC-enriched organoids; test: Primary screen, 384-well 2.5-D organoid differentiation (ENR+CD, 6 days): carbachol-induced lysozyme secretion (LYZ.S); format: cell-based, murine; details: primary screen; for Dose.FC.LYZ.S: FC vs plate median; for Z.LYZ.S: standard z score; for SSMD.LYZ.S: strictly standardized mean difference
From the text: (§1) High-throughput screening.

[3] = system: ISC-enriched organoids; test: Primary screen, 384-well 2.5-D organoid differentiation (ENR+CD, 6 days): basal lysozyme secretion (LYZ.NS); format: cell-based, murine; details: primary screen; for Dose.FC.LYZ.NS: FC vs plate median; for SSMD.LYZ.NS: strictly standardized mean difference
From the text: as §1

[4] = dose 0.08 uM, standard z score of FC
[5] = dose 0.40 uM, standard z score of FC
[6] = dose 2.00 uM, standard z score of FC
[7] = dose 10.00 uM, standard z score of FC
[8] = Dose 10.00 uM, standard z score
[9] = 1st of the 4 dose lines of the treatment (dose not given)
[10] = 2nd of the 4 dose lines of the treatment (dose not given)
[11] = 3rd of the 4 dose lines of the treatment (dose not given)
[12] = 4th of the 4 dose lines of the treatment (dose not given)

BAM7
Dose.FC.CTG ([1]; dose 0.08 uM, ENR+CD 6 days): 0.209 log 2 fold change
Z.CTG [1, 4]: 0.498
Dose.FC.CTG ([1]; dose 0.40 uM, ENR+CD 6 days): −0.010 log 2 fold change
Z.CTG [1, 5]: −0.024
Dose.FC.CTG ([1]; dose 2.00 uM, ENR+CD 6 days): −0.156 log 2 fold change
Z.CTG [1, 6]: −0.373
Dose.FC.CTG ([1]; dose 10.00 uM, ENR+CD 6 days): −0.114 log 2 fold change
Z.CTG [1, 7]: −0.272
Dose.FC.LYZ.S ([2]; dose 0.08 uM, ENR+CD 6 days): 0.079 log 2 fold change
Dose.FC.LYZ.S ([2]; dose 0.40 uM, ENR+CD 6 days): 0.039 log 2 fold change
Dose.FC.LYZ.S ([2]; dose 2.00 uM, ENR+CD 6 days): 0.019 log 2 fold change
Dose.FC.LYZ.S ([2]; dose 10.00 uM, ENR+CD 6 days): −0.020 log 2 fold change
Dose.FC.LYZ.NS ([3]; dose 0.08 uM, ENR+CD 6 days): 0.045 log 2 fold change
Z.LYZ.NS [3, 4]: 0.391
Dose.FC.LYZ.NS ([3]; dose 0.40 uM, ENR+CD 6 days): −0.009 log 2 fold change
Z.LYZ.NS [3, 5]: −0.082
Dose.FC.LYZ.NS ([3]; dose 2.00 uM, ENR+CD 6 days): 0.057 log 2 fold change
Z.LYZ.NS [3, 6]: 0.498
Dose.FC.LYZ.NS ([3]; dose 10.00 uM, ENR+CD 6 days): −0.007 log 2 fold change
Z.LYZ.NS [3, 7]: −0.063

HA14-1
Dose.FC.CTG ([1]; Dose 0.08 uM): 0.534 log 2 fold change
Z.CTG ([1]; Dose 0.08 uM, standard z score): 1.276
Dose.FC.CTG ([1]; Dose 0.40 uM): 0.526 log 2 fold change
Z.CTG ([1]; Dose 0.40 uM, standard z score): 1.255
Dose.FC.CTG ([1]; Dose 2.00 uM): 0.554 log 2 fold change
Z.CTG ([1]; Dose 2.00 uM, standard z score): 1.323
Dose.FC.CTG ([1]; Dose 10.00 uM): 0.388 log 2 fold change
Z.CTG [1, 8]: 0.926
SSMD.CTG [1, 9]: 1.389
SSMD.CTG [1, 10]: 1.961
SSMD.CTG [1, 11]: 2.075
SSMD.CTG [1, 12]: 1.289
Dose.FC.LYZ.S ([2]; Dose 0.08 uM): 0.190 log 2 fold change
Dose.FC.LYZ.S ([2]; Dose 0.40 uM): 0.316 log 2 fold change
Dose.FC.LYZ.S ([2]; Dose 2.00 uM): 0.170 log 2 fold change
Dose.FC.LYZ.S ([2]; Dose 10.00 uM): 0.149 log 2 fold change
Z.LYZ.S [2, 9]: 1.231
Z.LYZ.S [2, 10]: 2.041
Z.LYZ.S [2, 11]: 1.099
Z.LYZ.S [2, 12]: 0.964
SSMD.LYZ.S [2, 9]: 1.264
SSMD.LYZ.S [2, 10]: 1.052
SSMD.LYZ.S [2, 11]: 1.202
SSMD.LYZ.S [2, 12]: 0.449
Dose.FC.LYZ.NS ([3]; Dose 0.08 uM): 0.121 log 2 fold change
Z.LYZ.NS ([3]; Dose 0.08 uM, standard z score): 1.052
Dose.FC.LYZ.NS ([3]; Dose 0.40 uM): 0.137 log 2 fold change
Z.LYZ.NS ([3]; Dose 0.40 uM, standard z score): 1.195
Dose.FC.LYZ.NS ([3]; Dose 2.00 uM): 0.154 log 2 fold change
Z.LYZ.NS ([3]; Dose 2.00 uM, standard z score): 1.345
Dose.FC.LYZ.NS ([3]; Dose 10.00 uM): 0.132 log 2 fold change
Z.LYZ.NS [3, 8]: 1.151
SSMD.LYZ.NS [3, 9]: 1.056
SSMD.LYZ.NS [3, 10]: 1.013
SSMD.LYZ.NS [3, 11]: 1.483
SSMD.LYZ.NS [3, 12]: 0.640

I-BET151 (GSK1210151A)
Dose.FC.CTG ([1]; Dose 0.08 uM): −0.016 log 2 fold change
Z.CTG ([1]; Dose 0.08 uM, standard z score): −0.039
Dose.FC.CTG ([1]; Dose 0.40 uM): −0.174 log 2 fold change
Z.CTG ([1]; Dose 0.40 uM, standard z score): −0.415
Dose.FC.CTG ([1]; Dose 2.00 uM): −0.502 log 2 fold change
Z.CTG ([1]; Dose 2.00 uM, standard z score): −1.200
Dose.FC.CTG ([1]; Dose 10.00 uM): −0.935 log 2 fold change
Z.CTG [1, 8]: −2.233
SSMD.CTG [1, 9]: −0.045
SSMD.CTG [1, 10]: −0.433
SSMD.CTG [1, 11]: −1.788
SSMD.CTG [1, 12]: −2.304
Dose.FC.LYZ.S ([2]; Dose 0.08 uM): −0.242 log 2 fold change
Dose.FC.LYZ.S ([2]; Dose 0.40 uM): −0.344 log 2 fold change
Dose.FC.LYZ.S ([2]; Dose 2.00 uM): −0.416 log 2 fold change
Dose.FC.LYZ.S ([2]; Dose 10.00 uM): −0.408 log 2 fold change
Z.LYZ.S [2, 9]: −1.563
Z.LYZ.S [2, 10]: −2.225
Z.LYZ.S [2, 11]: −2.687
Z.LYZ.S [2, 12]: −2.641
SSMD.LYZ.S [2, 9]: −1.087
SSMD.LYZ.S [2, 10]: −1.784
SSMD.LYZ.S [2, 11]: −1.815
SSMD.LYZ.S [2, 12]: −1.694
Dose.FC.LYZ.NS ([3]; Dose 0.08 uM): −0.116 log 2 fold change
Z.LYZ.NS ([3]; Dose 0.08 uM, standard z score): −1.010
Dose.FC.LYZ.NS ([3]; Dose 0.40 uM): −0.248 log 2 fold change
Z.LYZ.NS ([3]; Dose 0.40 uM, standard z score): −2.159
Dose.FC.LYZ.NS ([3]; Dose 2.00 uM): −0.299 log 2 fold change
Z.LYZ.NS ([3]; Dose 2.00 uM, standard z score): −2.601
Dose.FC.LYZ.NS ([3]; Dose 10.00 uM): −0.284 log 2 fold change
Z.LYZ.NS [3, 8]: −2.473
SSMD.LYZ.NS [3, 9]: −0.856
SSMD.LYZ.NS [3, 10]: −1.677
SSMD.LYZ.NS [3, 11]: −1.629
SSMD.LYZ.NS [3, 12]: −1.342

Ifenprodil Tartrate
Dose.FC.CTG ([1]; Dose 0.08 uM): 0.102 log 2 fold change
Z.CTG ([1]; Dose 0.08 uM, standard z score): 0.243
Dose.FC.CTG ([1]; Dose 0.40 uM): 0.111 log 2 fold change
Z.CTG ([1]; Dose 0.40 uM, standard z score): 0.265
Dose.FC.CTG ([1]; Dose 2.00 uM): −0.003 log 2 fold change
Z.CTG ([1]; Dose 2.00 uM, standard z score): −0.008
Dose.FC.CTG ([1]; Dose 10.00 uM): −1.034 log 2 fold change
Z.CTG [1, 8]: −2.471
SSMD.CTG [1, 9]: 0.218
SSMD.CTG [1, 10]: 0.279
SSMD.CTG [1, 11]: −0.009
SSMD.CTG [1, 12]: −1.277
Dose.FC.LYZ.S ([2]; Dose 0.08 uM): 0.050 log 2 fold change
Dose.FC.LYZ.S ([2]; Dose 0.40 uM): 0.017 log 2 fold change
Dose.FC.LYZ.S ([2]; Dose 2.00 uM): −0.023 log 2 fold change
Dose.FC.LYZ.S ([2]; Dose 10.00 uM): −0.301 log 2 fold change
Z.LYZ.S [2, 9]: 0.325
Z.LYZ.S [2, 10]: 0.107
Z.LYZ.S [2, 11]: −0.151
Z.LYZ.S [2, 12]: −1.947
SSMD.LYZ.S [2, 9]: 0.255
SSMD.LYZ.S [2, 10]: 0.091
SSMD.LYZ.S [2, 11]: −0.103
SSMD.LYZ.S [2, 12]: −1.030
Dose.FC.LYZ.NS ([3]; Dose 0.08 uM): 0.056 log 2 fold change
Z.LYZ.NS ([3]; Dose 0.08 uM, standard z score): 0.492
Dose.FC.LYZ.NS ([3]; Dose 0.40 uM): −0.019 log 2 fold change
Z.LYZ.NS ([3]; Dose 0.40 uM, standard z score): −0.161
Dose.FC.LYZ.NS ([3]; Dose 2.00 uM): 0.123 log 2 fold change
Z.LYZ.NS ([3]; Dose 2.00 uM, standard z score): 1.068
Dose.FC.LYZ.NS ([3]; Dose 10.00 uM): −0.219 log 2 fold change
Z.LYZ.NS [3, 8]: −1.909
SSMD.LYZ.NS [3, 9]: 0.372
SSMD.LYZ.NS [3, 10]: −0.116
SSMD.LYZ.NS [3, 11]: 0.504
SSMD.LYZ.NS [3, 12]: −1.176

Source: patent publication US20230398130A1, “METHODS AND COMPOSITIONS FOR DIFFERENTIATING STEM CELLS” (Massachusetts Institute of Technology, priority 2020, published 2023)
